Reference: patent US8637536B2, “Pyrimidinone compounds for use in the treatment of diseases or conditions mediated by Lp-PLA2” (Glaxo Group Limited, priority 2010, dated 2014)
Structures can show the parent of a compound that is named as a salt. Where two headings read alike, the source gives them in different places.

Biological target: T1, recombinant human Lp-PLA2 (Homo sapiens, UniProt Q13093)
T1 sequence (Q13093 22-441): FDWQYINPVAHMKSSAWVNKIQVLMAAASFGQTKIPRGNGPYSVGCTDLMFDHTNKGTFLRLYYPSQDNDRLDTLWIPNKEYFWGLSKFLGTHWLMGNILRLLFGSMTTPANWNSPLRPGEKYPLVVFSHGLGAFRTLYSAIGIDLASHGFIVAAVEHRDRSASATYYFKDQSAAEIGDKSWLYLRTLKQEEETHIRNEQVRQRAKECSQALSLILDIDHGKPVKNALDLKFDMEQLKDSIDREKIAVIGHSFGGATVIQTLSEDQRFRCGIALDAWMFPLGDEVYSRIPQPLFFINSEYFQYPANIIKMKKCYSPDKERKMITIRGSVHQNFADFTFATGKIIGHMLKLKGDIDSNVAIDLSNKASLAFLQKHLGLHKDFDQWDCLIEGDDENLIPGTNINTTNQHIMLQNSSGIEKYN
Assay: Recombinant human Lp-PLA2 assay (rhLp-PLA2, PED6 assay)
Assay type: biochemical
Excerpt: (1) Recombinant Human Lp-PLA2 Assay (rhLp-PLA2) (Also Referred to as “PED6” Assay)
N-((6-(2,4-dinitrophenyl)amino)-hexanoyl)-2-(4,4-difluoro-5,7-dimethyl-4-bora-3a,4a-diaza-s-indacene-3-pentanoyl)-1-hexadecanoyl-sn-glycero-3-phosphoethanolamine, triethylammonium salt (PED6) is a commercially available fluorescently-labelled phospholipid, which is commercially available from Molecular Probes. There is a quenching […] position and a Bodipy fluorescein (FL) group in the sn2 position.
The PED6 assay was run as an unquenched 10 μL assay. Compounds source plate was prepared by making 1:3 (by volume) serial dilution of the compounds into pure DMSO on 384-well microplate. […] 5 μL of recombinant human Lp-PLA2 enzyme (2 nM rhLp-PLA2 in assay buffer of 50 mM HEPES, pH7.4, 150 mM NaCl, 1 mM CHAPS) was added to each well of the plate with compounds. Plates were centrifuged for 10 sec at 500 rpm. […] Plates were centrifuged for 10 sec at 500 rpm. Plate was covered to protect from light and incubated for 20 min at room temperature. […] PIC50 data, curve and QC analysis was conducted by using XL fit module in Excel.

[1] = text thresholds, upper limit for pIC50 in this assay is 9.3, read-out: pIC50 values in the PED6 assay (converted)
[2] = upper limit for pIC50 obtained in this PED6 assay is 9.3, read-out: rhLp-PLA2 (PED6 assay) (pIC50) (converted)

Row | Structure (SMILES) | IC50 [1] | IC50 [2]
1 | O=c1nc(OCCc2ccc(Oc3ccc(Cl)c(C(F)(F)F)c3)c(F)c2)[nH]cc1Cc1cncnc1 [E31, 2-{[2-(4-{[4-Chloro-3-(trifluoromethyl)phenyl]oxy}-3-fluorophenyl)ethyl]oxy}-5-(5-pyrimidinylmethyl)-4(1H)-pyrimidinone trifluoroacetate] | ≤ 1 nM | –
2 | Cn1cc(Cc2c[nH]c(SCc3ccc(Oc4ccc(Cl)c(C(F)(F)F)c4)c(C#N)c3)nc2=O)c2ccccc21 [E81, 2-(4-chloro-3-(trifluoromethyl)phenoxy)-5-(((5-((1-methyl-1H-indol-3-yl)methyl)-4-oxo-1,4-dihydropyrimidin-2-yl)thio)methyl)benzonitrile] | – | 25.1 nM
3 | Cn1cc(Cc2cncnc2)c(=O)nc1SCCc1ccc(Oc2ccc(Cl)c(C(F)(F)F)c2)cc1 [E116, 2-{[2-(4-{[4-chloro-3-(trifluoromethyl)phenyl]oxy}phenyl)ethyl]thio}-1-methyl-5-(5-pyrimidinylmethyl)-4(1H)-pyrimidinone] | ≤ 1 nM | –
4 | COc1ncc(Cc2c[nH]c(SCCc3ccc(Oc4ccc(Cl)c(C(F)(F)F)c4)c(C#N)c3)nc2=O)cn1 [E119, 2-{[4-chloro-3-(trifluoromethyl)phenyl]oxy}-5-{2-[(5-{[2-(methyloxy)-5-pyrimidinyl]methyl}-4-oxo-1,4-dihydro-2-pyrimidinyl)thio]ethyl}benzonitrile] | ≤ 1 nM | –
5 | COc1ncc(Cc2c[nH]c(OCCc3ccc(Oc4ccc(Cl)c(C(F)(F)F)c4)cc3)nc2=O)cn1 [E24, 2-{[2-(4-{[4-Chloro-3-(trifluoromethyl)phenyl]oxy}phenyl)ethyl]oxy}-5-{[2-(methyloxy)-5-pyrimidinyl]methyl}-4(1H)-pyrimidinone] | ≤ 1 nM | 0.794 nM
6 | N#Cc1cc(CSc2nc(=O)c(Cc3cncnc3)c[nH]2)ccc1Oc1cccc(C(F)(F)F)c1 [E96, 5-({[4-oxo-5-(5-pyrimidinylmethyl)-1,4-dihydro-2-pyrimidinyl]thio}methyl)-2-{[3-(trifluoromethyl)phenyl]oxy}benzonitrile] | ≤ 1 nM | –
7 | Cn1cc(Cc2c[nH]c(SCc3ccc(Oc4ccc(Cl)c(C(F)(F)F)c4)c(C#N)c3)nc2=O)cn1 [E58, 2-(4-chloro-3-(trifluoromethyl)phenoxy)-5-(((5-((1-methyl-1H-pyrazol-4-yl)methyl)-4-oxo-1,4-dihydropyrimidin-2-yl)thio)methyl)benzonitrile, trifluoroacetic acid salt] | ≤ 1 nM | ≤ 0.501 nM
8 | COc1ncc(Cc2cn(C)c(OCCc3ccc(Oc4ccc(Cl)c(C(F)(F)F)c4)cc3)nc2=O)cn1 [E25, 2-{[2-(4-{[4-Chloro-3-(trifluoromethyl)phenyl]oxy}phenyl)ethyl]oxy}-1-methyl-5-{[2-(methyloxy)-5-pyrimidinyl]methyl}-4(1H)-pyrimidinone] | ≤ 1 nM | –
9 | N#Cc1cc(CCSc2nc(=O)c(Cc3cncnc3)c[nH]2)ccc1Oc1ccc(Cl)c(C(F)(F)F)c1 [E118, 2-{[4-chloro-3-(trifluoromethyl)phenyl]oxy}-5-(2-{[4-oxo-5-(5-pyrimidinylmethyl)-1,4-dihydro-2-pyrimidinyl]thio}ethyl)benzonitrile] | ≤ 1 nM | –
10 | O=c1nc(OCCc2ccc(Oc3ccc(Cl)c(C(F)(F)F)c3)cc2)[nH]cc1Cc1c(F)cc(F)cc1F [E129, 2-{[2-(4-{[4-chloro-3-(trifluoromethyl)phenyl]oxy}phenyl)ethyl]oxy}-5-[(2,4,6-trifluorophenyl)methyl]-4(1H)-pyrimidinone] | – | 3.98 nM
11 | Cn1cc(Cc2cncnc2)c(=O)nc1OCCc1cc(F)c(Oc2ccc(Cl)c(C(F)(F)F)c2)c(F)c1 [E30, 2-{[2-(4-{[4-Chloro-3-(trifluoromethyl)phenyl]oxy}-3,5-difluorophenyl)ethyl]oxy}-1-methyl-5-(5-pyrimidinylmethyl)-4(1H)-pyrimidinone] | ≤ 1 nM | –

Continued, values first:

Row | IC50 [1] | IC50 [2] | Structure (SMILES)
12 | ≤ 1 nM | – | COc1ncc(Cc2c[nH]c(SCc3ccc(Oc4cccc(C(F)(F)F)c4)c(C#N)c3)nc2=O)cn1 [E100, 5-{[(5-{[2-(methyloxy)-5-pyrimidinyl]methyl}-4-oxo-1,4-dihydro-2-pyrimidinyl)thio]methyl}-2-{[3-(trifluoromethyl)phenyl]oxy}benzonitrile]
13 | ≤ 1 nM | – | Cn1cc(Cc2cn(C)c(SCc3ccc(Oc4ccc(F)c(C(F)(F)F)c4)c(C#N)c3)nc2=O)cn1 [E60, 2-(4-fluoro-3-(trifluoromethyl)phenoxy)-5-(((1-methyl-5-((1-methyl-1H-pyrazol-4-yl)methyl)-4-oxo-1,4-dihydropyrimidin-2-yl)thio)methyl)benzonitrile, trifluoroacetic acid salt]
14 | ≤ 1 nM | 1 nM | O=c1nc(NCCc2ccc(Oc3ccc(Cl)c(C(F)(F)F)c3)cc2)[nH]cc1Cc1cncnc1 [E11, 2-{[2-(4-{[4-Chloro-3-(trifluoromethyl)phenyl]oxy}phenyl)ethyl]amino}-5-(5-pyrimidinylmethyl)-4(1H)-pyrimidinone]
15 | ≤ 10 nM | – | COc1ncc(Cc2c[nH]c(SCc3ccc(Oc4ccc(F)cc4)cc3)nc2=O)cn1 [E52, 2-((4-(4-fluorophenoxy)benzyl)thio)-5-((2-methoxypyrimidin-5-yl)methyl)pyrimidin-4(1H)-one]
16 | ≤ 10 nM | – | CCc1cn(C)c(SCc2ccc(Oc3ccc(Cl)c(C(F)(F)F)c3)c(C#N)c2)nc1=O [E64, 2-{[4-chloro-3-(trifluoromethyl)phenyl]oxy}-5-{[(5-ethyl-1-methyl-4-oxo-1,4-dihydro-2-pyrimidinyl)thio]methyl}benzonitrile]
17 | ≤ 10 nM | – | COc1ncc(Cc2c[nH]c(OCCc3ccc(Oc4c(F)cc(Cl)cc4F)cc3)nc2=O)cn1 [E181, 2-(4-(4-chloro-2,6-difluorophenoxy)phenethoxy)-5-((2-methoxypyrimidin-5-yl)methyl)pyrimidin-4(1H)-one]
18 | – | 0.794 nM | Cn1cc(Cc2c[nH]c(OCCc3ccc(Oc4ccc(Cl)c(C(F)(F)F)c4)cc3)nc2=O)cn1 [E22, 2-{[2-(4-{[4-Chloro-3-(trifluoromethyl)phenyl]oxy}phenyl)ethyl]oxy}-5-[(1-methyl-1H-pyrazol-4-yl)methyl]-4(1H)-pyrimidinone trifluoroacetate]
19 | ≤ 1 nM | – | COc1ncc(Cc2c[nH]c(SCc3ccc(Oc4ccc(F)c(C(F)(F)F)c4)c(C#N)c3)nc2=O)cn1 [E89, 2-{[4-fluoro-3-(trifluoromethyl)phenyl]oxy}-5-{[(5-{[2-(methyloxy)-5-pyrimidinyl]methyl}-4-oxo-1,4-dihydro-2-pyrimidinyl)thio]methyl}benzonitrile]
20 | ≤ 10 nM | – | COc1ncc(Cc2c[nH]c(OCCc3ccc(Oc4ccc(C(F)(F)F)cn4)cc3)nc2=O)cn1 [E137, 5-((2-methoxypyrimidin-5-yl)methyl)-2-(4-((5-(trifluoromethyl)pyridin-2-yl)oxy)phenethoxy)pyrimidin-4(1H)-one]
21 | ≤ 10 nM | – | COc1ncc(Cc2cn(C)c(SCc3ccc(Oc4ccc(F)cc4)cc3)nc2=O)cn1 [E53, 2-[({4-[(4-fluorophenyl)oxy]phenyl}methyl)thio]-1-methyl-5-{[2-(methyloxy)-5-pyrimidinyl]methyl}-4(1H)-pyrimidinone]
22 | ≤ 1 nM | – | O=c1nc(OCCc2cc(F)c(Oc3ccc(Cl)c(C(F)(F)F)c3)c(F)c2)[nH]cc1Cc1cncnc1 [E29, 2-{[2-(4-{[4-Chloro-3-(trifluoromethyl)phenyl]oxy}-3,5-difluorophenyl)ethyl]oxy}-5-(5-pyrimidinylmethyl)-4(1H)-pyrimidinone]
23 | ≤ 1 nM | 0.631 nM | COc1ncc(Cc2c[nH]c(SCc3ccc(Oc4ccc(Cl)c(C(F)(F)F)c4)cc3)nc2=O)cn1 [E74, 2-{[(4-{[4-chloro-3-(trifluoromethyl)phenyl]oxy}phenyl)methyl]thio}-5-{[2-(methyloxy)-5-pyrimidinyl]methyl}-4(1H)-pyrimidinone]
24 | – | ≤ 0.501 nM | Cn1cc(Cc2c[nH]c(SCCc3ccc(Oc4ccc(Cl)c(C(F)(F)F)c4)cc3)nc2=O)cn1 [E112]
